Assay results published in PubChem BioAssay (NCI).
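How tested: cells in 96-well plates exposed to compound for 48 hours at five concentrations. Abbreviation: GI50, concentration required for 50% inhibition of growth. Definition used: TGI = concentration required for complete inhibition of growth.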

What was measured:
Test in all cases: DTP human tumour cell line panel, 48 h
[1] = tested on: A549 NSCLC
[2] = tested on: ACHN renal
[3] = tested on: HCC-2998 colon
[4] = tested on: HOP-62 NSCLC
[5] = tested on: M14 melanoma
[6] = tested on: OVCAR-4 ovarian
[7] = tested on: SF-539 CNS
[8] = tested on: SK-MEL-2 melanoma
[9] = tested on: SK-MEL-5 melanoma
[10] = tested on: UACC-257 melanoma

SMILES	GI50 [1] [µM]	TGI [1] [µM]	GI50 [2] [µM]	TGI [2] [µM]	GI50 [3] [µM]	TGI [3] [µM]	GI50 [4] [µM]	TGI [4] [µM]	GI50 [5] [µM]	TGI [5] [µM]	GI50 [6] [µM]	TGI [6] [µM]	GI50 [7] [µM]	TGI [7] [µM]	GI50 [8] [µM]	TGI [8] [µM]	GI50 [9] [µM]	TGI [9] [µM]	GI50 [10] [µM]	TGI [10] [µM]
Clc1ccc(CNc2nccc(-c3cnn4ncccc34)n2)cc1	7.66	> 25	5.95	> 25	6.67	18.4	7.59	> 25	7.09	> 17	7.47	> 25	6.25	15.6	5.25	11.5	5.4	> 25	6.43	16.5
CS(=O)(=O)N(CCC#N)c1ccc(C=O)cc1		> 100		> 100		> 100		> 100		> 100		> 100		> 100		> 100		> 100		> 100
NC(=O)c1ccccc1NC(=O)c1ccccc1Cl	> 100	> 100	> 100	> 100	> 100	> 100	> 100	> 100	> 100	> 100	> 100	> 100	> 100	> 100	> 100	> 100	> 100	> 100	> 100	> 100
Cc1ccc2nc(-c3ccc(N)c4ccccc34)[nH]c2c1	0.781	> 46.2	0.987	37.1	0.356	12.1	0.617	4.39	0.054	0.427	8.58	> 100	0.0607	1.64	0.209	24.9		1.73	9.5	34.5
O=S(=O)(NC1=NCCN1C(=S)SN1CCn2c1nsc2=S)c1ccccc1Cl	32.5	> 100	24.5	> 100	15.9	29.5	17.4	33.9	12.8	27.1	15.6	> 100	12.9	31.5	16.9	40	15.8	31.1	31.6	> 100
Nc1cc(S(N)(=O)=O)ccc1SSc1ccc(S(N)(=O)=O)cc1N		> 100		> 100		> 100		> 100		> 100		> 100		> 100		> 100		> 100		> 100
Nc1ccc(C(OC(=O)c2cc3ccccc3c(Cc3c(O)c(C(=O)OC(c4ccc(N)cc4)(c4ccc(N)cc4)c4ccc(N)cc4)cc4ccccc34)c2O)(c2ccc(N)cc2)c2ccc(N)cc2)cc1	0.774	21.7	2.49	54	1.83	15.5	0.331	14.1	0.993	19.1	2.03	56.6	0.362	14.2	1.4	4.55	0.455	2.3	0.426	5.96
O=C(CNc1ccc2c(=S)c3ccccc3[nH]c2c1)Nc1ccccc1-c1ccccc1NC(=O)CNc1ccc2c(=S)c3ccccc3[nH]c2c1		55.5		28.5		31.5		48.4		41.4		45.2		52		34.4		35.3		45.3
CN(C)CCSCCO		> 100		> 100		> 100		> 100		> 100		> 100		> 100		> 100		> 100		> 100
